Reference: patent US4073942A, “Halo-substituted hydroxybenzyl-amines as secretolytic agents” (Boehringer Ingelheim GmbH, priority 1972, dated 1978)
Counter-ions that a name gives are not always drawn.

Columns and labels:
Type in all cases: in vivo
[1] = system: stomach ulcers in female rats; assay: Anti-ulcerogenic activity: acetic acid-induced stomach ulcers; conditions: three weeks
Description: The standard pharmacological test method of […] et al, Jap. J. Pharmac. 19, 418 (1969), was used. The abdominal cavity of female rats having a body weight of 220 to 350 gm under ether anesthesia was opened, and the stomach was exposed. […] The controls received only pulverized rat food. After three weeks, the animals were sacrificed, their stomachs were excised, and the size of the ulcer was determined by measuring its length and width.

[2] = system: coughs induced by citric acid spray in awake white rats; assay: Antitussive activity: change in number of citric acid-induced coughs after oral application; conditions: 50 mgm/kg oral, compared to control group
[3] = Acute toxicity after oral application, 72 hours observation; conditions: mouse, in vivo, po
Description: (§1) The acute toxicity was determined on groups of 5 white mice after oral application of a dose ranging between 500 mgm/kg and 5000 mgm/kg per animal (time of observation: 72 hours).

white mice = assay: as above; conditions: white mice, 72 hours
Description: as §1

cats = assay: Circulatory effect in cats under chloralose-urethane narcosis after intravenous application; conditions: 3 animals per dose
Description: The circulatory effect in cats was determined under chloralose-urethane narcosis after intravenous application of the test compound (3 animals per dose).

[4] = system: secretion in anesthetized rabbits or guinea pigs; assay: Expectorant effect: secretolytic activity, increase of secretion within 2 hours after oral application; conditions: 8 mgm/kg oral
Description: The increase of secretion within 2 hours was calculated before and after application of the substance see Perry and Boyd in Pharmakol. exp. Therap. 73, 65 (1941)!.

[5] = white mice, 72 hours observation

For `Cl.Oc1c(Br)cc(CN[C@H]2CCC[C@@H](O)C2)cc1Br` (relative stereo) [C, N-(cis-3'-hydroxy-cyclohexyl)-3,5-dibromo-4-hydroxy-benzylamine hydrochloride], the “% change in ulcer size versus controls” value ([1]; 50 mgm/kg p.o. in daily food) was -11%, the “% change in ulcer size versus controls” value ([1]; 100 mgm/kg p.o. in daily food) was -29% and the “Average change in the number of coughs, in per cent, 30 minutes after oral application of 50 mgm/kg” value [2] was -35%. For the same compound, the LD50 at 72 h [3, 5] was > 1000 mg/kg and the animals dead (white mice; 1000 mgm/kg p.o.) was 0 of 5.

For `CCN(Cc1cc(Br)c(O)c(Br)c1)C1CCCCC1` [B, N-ethyl-N-cyclohexyl-3,5-dibromo-4-hydroxy-benzylamine], the “Average change in the number of coughs, in per cent, 30 minutes after oral application of 50 mgm/kg” value [2] was -34%, the “Circulatory effect in cats” value (cats; 8 mgm/kg) was “no change” and the LD50 at 72 h [3, 5] was > 1000 mg/kg. For the same compound, the animals dead (white mice; 1000 mgm/kg p.o.) was 0 of 5 and the change in vivo at 8 mg/kg [4] was 87%.

For `CCN(Cc1cc(Br)cc(Br)c1O)C1CCCCC1` [Compound A, N-ethyl-N-cyclohexyl-(3,5-dibromo-2-hydroxy)-benzylamine hydrochloride], the “% change in ulcer size versus controls” value ([1]; 50 mgm/kg p.o. in daily food) was -39%, the “% change in ulcer size versus controls” value ([1]; 100 mgm/kg p.o. in daily food) was -54% and the “Average change in the number of coughs, in per cent, 30 minutes after oral application of 50 mgm/kg” value [2] was -38%. For the same compound, the “Circulatory effect in cats” value (cats; 4 mgm/kg) was “no change”, the LD50 at 72 h [3] was > 1000 mg/kg and the animals dead (white mice; 1000 mgm/kg p.o.) was 0 of 5. The change in vivo at 8 mg/kg [4] was 81%.

In the case of `CCC(C)(C)NCc1cc(Br)cc(Br)c1O.Cl` [Compound I, N-tert.pentyl-3,5-dibromo-2-hydroxy-benzylamine hydrochloride], the LD50 at 72 h [3, 5] is reported as > 5000 mg/kg, the animals dead (white mice; 5000 mgm/kg p.o.) is reported as 0 of 5 and the change in vivo at 8 mg/kg [4] is reported as 80%.

With `Oc1c(Br)cccc1CN[C@H]1CC[C@H](O)CC1` [D, N-(trans-4'-hydroxy-cyclohexyl)-3-bromo-2-hydroxy-benzylamine] the LD50 at 72 h [3, 5] was > 500 mg/kg, the animals dead (white mice; 500 mgm/kg p.o.) was 0 of 5 and the change in vivo at 8 mg/kg [4] was 66%.

With `CN(Cc1cc(Cl)c(O)c(Br)c1)C1CCCCC1.Cl` [E, n-methyl-N-cyclohexyl-3-bromo-5-chloro-4-hydroxy-benzylamine hydrochloride] the LD50 at 72 h [3, 5] was > 500 mg/kg, the animals dead (white mice; 500 mgm/kg p.o.) was 0 of 5 and the change in vivo at 8 mg/kg [4] was 65%.

With `Oc1c(Br)cc(Br)cc1CN[C@H]1CC[C@H](O)CC1` [F, N-(trans-4'-hydroxy-cyclohexyl)-3,5-dibromo-2-hydroxy-benzylamine] the “% change in ulcer size versus controls” value ([1]; 50 mgm/kg p.o. in daily food) was -59%, the “% change in ulcer size versus controls” value ([1]; 100 mgm/kg p.o. in daily food) was -78% and the LD50 at 72 h [3, 5] was > 5000 mg/kg. For the same compound, the animals dead (white mice; 5000 mgm/kg p.o.) was 0 of 5 and the change in vivo at 8 mg/kg [4] was 70%.

With `CC(CO)(CO)NCc1cc(Br)cc(Br)c1O` [G, N-(dihydroxy-tert.butyl)-3,5-dibromo-2-hydroxy-benzylamine hydrochloride] the LD50 at 72 h [3, 5] was > 5000 mg/kg, the animals dead (white mice; 5000 mgm/kg p.o.) was 0 of 5 and the change in vivo at 8 mg/kg [4] was 88%.

With `CC(CO)(CO)NCc1cc(Cl)c(O)c(Cl)c1` [H, N-(dihydroxy-tert.butyl)-3,5-dichloro-4-hydroxy-benzylamine hydrochloride] the change in vivo at 8 mg/kg [4] was 88%.

With `CN(Cc1cc(Br)cc(Br)c1O)C1CCCCC1` [J, N-methyl-N-cyclohexyl-(3,5-dibromo-2-hydroxy)-benzylamine hydrochloride] the “% change in ulcer size versus controls” value ([1]; 50 mgm/kg p.o. in daily food) was -73%, the “% change in ulcer size versus controls” value ([1]; 100 mgm/kg p.o. in daily food) was -82% and the LD50 at 72 h [3, 5] was > 5000 mg/kg. For the same compound, the animals dead (white mice; 5000 mgm/kg p.o.) was 1 of 5.
